Consider two molecules from PubChem BioAssay AID1053137 (Broad Institute, 2014).

Assay [1] is described as follows: PCSK9 expression suppression by TRIB1 inducers – cell-based, RT-qPCR, cherry-pick, mechanism study for TRIB1 upregulator project, late-stage follow-up (AID 1053137). The following applies: HepG2 PCSK9 mRNA, qRT-PCR, overnight; measured here: maximal PCSK9 expression inhibition; stronger effect = higher value.
The subject of assay [2] is HepG2 PCSK9 mRNA, qRT-PCR, overnight. The description is as above.

Each structure is given as a SMILES string.

As for `CN1C(=O)c2cc(NC(=O)c3ccc(C(F)(F)F)cc3)ccc2OC[C@@H]2O[C@H](CC(=O)NC3Cc4ccccc4C3)CC[C@@H]21`, the inhibition in assay [1] was 85%. Also, in assay [2], the AC50 was 110 nM.

Regarding `CN1C(=O)c2cc(NC(=O)c3ccc(C(F)(F)F)cc3)ccc2OC[C@@H]2O[C@@H](CC(=O)NC3Cc4ccccc4C3)CC[C@@H]21`, the inhibition in assay [1] was 87%. The AC50 in assay [2] was 870 nM.
